In US8324267B2, “Kinase inhibitors and the use thereof” (Forschungzentrum Karlsruhe GmbH, priority 2001, dated 2012):

Key:
[1] = tested on: Human umbilical vein endothelial cells (HUVEC); test: Endothelial cell proliferation, 3H-thymidine incorporation; assay type: cell-based; settings: 24 h, FIG. 2
Protocol: Human umbilical vein endothelial cells (HUVEC) underwent serum-starved cultivation for 24 h. The cells were then preincubated with the appropriate compounds for 2 h and subsequently cultivated in the presence of the inhibitors with VEGF (MAE87) or bFGF (MAE106, MAZ51) for a further 24 h. The cells were then incubated with ^3H-thymidine. The amount of radioactivity incorporated into the cellular DNA was measured. All the experiments were carried out in triplicate.
HUVE cells were seeded in 100 μl/well (10^5 cells/ml) in 96-well culture plates and left to rest overnight. The cells were then starved with 50 μl of serum-free medium/well for 24 h. Subsequently, 50 μl of various concentrations of the test substances in serum-free medium (contains 2% DMSO) were added and incubated at 37° C. for 2 h. The medium containing the test compounds was removed and replaced by 50 μl of fresh medium with bFGF (12.5 ng/ml) or VEGF (100 ng/ml). Fresh dilutions of the doubly concentrated test substances in serum-free medium with 2% DMSO were added to the cells in 50 μl/well. The final concentration of DMSO was always 1%. After 24 h, ^3H-thymidine (1 μCi/well) was added, and the cells were incubated for a further 4-6 h. To analyze the incorporated radioactivity, the cells were trypsinized for 30 min and harvested with the aid of a harvester 96 cell (Tomtec) and fixed on a glass fiber membrane filter. The immobilized radioactivity was quantified with the aid of a MicroBeta TriLux liquid scintillation luminescence counter. The result is depicted in FIG. 2.
FIG. 2: Measurement of the (^3H)-thymidine incorporation into human endothelial cells (HUVEC) as a function of the concentration of inhibitors employed (MAE87, MAE106 and MAZ51). The inhibition of cell proliferation by MAE87, MAE106 and MAZ51 is dose-dependent in this case.

[2] = tested on: 1AS cells; test: Growth of subcutaneous 1AS carcinomas in BDX rats; assay type: in vivo, rat; settings: 1AS cells s.c., 4-5 mg/kg each day in DMSO, FIG. 7
Protocol: 1AS cells (5×10^5) were injected subcutaneously into 2 groups of BDX rats (8 rats per group). One group was subsequently injected with 100 μl of DMSO/animal per day up to the end of the experiment. The other group was injected with 100 μl of MAZ51 (10 mg/ml in DMSO)/animal, equivalent to 4-5 mg/kg, each day. The tumor volume was measured normally measured regularly after the injection of the tumor cells.
FIG. 7: Depiction of the tumor volume as a function of the number of days after tumor cell injection depending on the treatment of the 1AS tumor cells with MAZ51.

[3] = tested on: MT450 rat mammary carcinoma cells; test: Growth of subcutaneous MT450 mammary carcinomas in Wistar Furth rats; assay type: in vivo; settings: MT450 cells s.c., 8 mg/kg/day intraperitoneally in DMSO, FIG. 8
Protocol: MT450 rat mammary carcinoma cells were injected subcutaneously into Wistar Furth rats. Treatment with the active substance MAZ51 at 8 mg/kg/day in 100% DMSO or solvent control (100% DMSO) was started the day after injection of the tumor cells. MAZ51 or only solvent was injected intraperitoneally each day. Each test group comprised 8 animals. The tumors were measured every 4-5 days.
FIG. 8: Depiction of the tumor volume as a function of the number of days after tumor cell injection depending on treatment of the MT450 tumor cells with MAZ51 and a DMSO solution (negative control).

SMILES | inhibition of cell proliferation (3H-thymidine incorporation) ([1]; bFGF stimulated) | inhibition of cell proliferation (3H-thymidine incorporation) ([1]; VEGF stimulated) | inhibition of tumor growth (tumor volume) [2] | inhibition of tumor growth (tumor volume) [3]
COc1ccc(C=C2C(=O)Nc3ccccc32)cc1F [MAE106, 3-(3-Fluoro-4-methoxybenzylidene)-1,3-dihydroindole-2-one] | dose-dependent | – | – | –
O=C1Nc2ccccc2C1=Cc1ccc(O)cc1O [MAE87, 3-(2,4-Dihydroxybenzylidene)-1,3-dihydroindol-2-one] | – | dose-dependent | – | –
CN(C)c1ccc(C=C2C(=O)Nc3ccccc32)c2ccccc12 [MAZ51, 3-(4-Dimethylaminonaphthalen-1-ylmethylene)-1,3-dihydroindol-2-one] | dose-dependent | – | considerably inhibited | inhibited in vivo
